According to patent US20260250290A1 (BRISTOL-MYERS SQUIBB COMPANY, priority 2023, published 2026):
Structures can show the parent of a compound that is named as a salt.

Molecular target: T1, full length SGK1 (Homo sapiens, UniProt O00141)
T1 construct: 125 μM full length SGK1 (Life Technologies Part #PR7358A); purchased Life Technologies PR7358A
T1 sequence (O00141 1-431): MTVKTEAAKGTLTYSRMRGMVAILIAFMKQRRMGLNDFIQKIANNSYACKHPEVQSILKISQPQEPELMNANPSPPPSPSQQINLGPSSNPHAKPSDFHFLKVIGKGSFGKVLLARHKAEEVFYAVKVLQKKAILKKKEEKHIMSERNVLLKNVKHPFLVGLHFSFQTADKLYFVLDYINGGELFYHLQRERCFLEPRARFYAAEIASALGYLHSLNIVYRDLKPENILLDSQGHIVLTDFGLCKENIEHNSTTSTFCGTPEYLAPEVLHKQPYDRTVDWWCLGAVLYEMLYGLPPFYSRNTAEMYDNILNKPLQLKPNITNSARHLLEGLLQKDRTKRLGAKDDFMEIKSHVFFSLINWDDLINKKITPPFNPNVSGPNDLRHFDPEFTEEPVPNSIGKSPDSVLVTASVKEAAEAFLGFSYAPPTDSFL
Assay: SGK1 inhibition Assay A (Caliper LabChip electrophoretic separation of fluorescent peptide substrate and phosphorylated product)
Type: biochemical
Conditions: Assay A; 20 μM ATP, 40 min incubation; read-out: SGK1 IC50

IC50 [µM] | Compound
0.517 | Nc1ncnn2c(-c3cn(C4CCNC4)nn3)cc(N3CCC[C@@H](NC(=O)c4ccc(Cl)s4)C3)c12 (stereo partly drawn) [Example 866, N-((3R)-1-(4-amino-7-(1-(pyrrolidin-3-yl)-1H-1,2,3-triazol-4-yl)pyrrolo[2,1-f][1,2,4]triazin-5-yl)piperidin-3-yl)-5-chlorothiophene-2-carboxamide]
0.006 | CN(C)CCOc1cc(Cl)sc1C(=O)N[C@@H]1CCCN(c2cc(-c3ccc(-n4cnc(C#N)n4)nc3)n3ncnc(N)c23)C1 [Example 191, (R)-N-(1-(4-amino-7-(6-(3-cyano-1H-1,2,4-triazol-1-yl)pyridin-3-yl)pyrrolo[2,1-f][1,2,4]triazin-5-yl)piperidin-3-yl)-5-chloro-3-(2-(dimethylamino)ethoxy) thiophene-2-carboxamide]
0.065 | CS(=O)(=O)c1ccc(-c2cc(N3CCC[C@@H](NC(=O)c4ccnnc4)C3)c3c(N)ncnn23)cc1 [Example 30, (R)-N-(1-(4-amino-7-(4-(methylsulfonyl)phenyl)pyrrolo[2,1-f][1,2,4]triazin-5-yl)piperidin-3-yl)pyridazine-4-carboxamide]
0.019 | CC(C)c1cc(C(=O)N[C@@H]2CCCN(c3cc(-c4ccc(S(C)(=O)=O)cc4)n4ncnc(N)c34)C2)on1 [Example 65, (R)-N-(1-(4-amino-7-(4-(methylsulfonyl)phenyl)pyrrolo [2,1-f][1,2,4]triazin-5-yl)piperidin-3-yl)-3-isopropylisoxazole-5-carboxamide]
0.026 | CC(=O)N1CC=C(c2cc(N3CCC[C@@H](NC(=O)c4ccc(-c5ccncc5)cc4)C3)c3c(N)ncnn23)C1 [Example 462, (R)-N-(1-(7-(1-acetyl-2,5-dihydro-1H-pyrrol-3-yl)-4-aminopyrrolo[2,1-f][1,2,4]triazin-5-yl)piperidin-3-yl)-4-(pyridin-4-yl)benzamide]
0.037 | CC(=O)N1CC=C(c2cc(N3CCC[C@@H](NC(=O)c4cccc(OC5CCN(C(C)C)CC5)n4)C3)c3c(N)ncnn23)C1 [Example 751, (R)-N-(1-(7-(1-acetyl-2,5-dihydro-1H-pyrrol-3-yl)-4-aminopyrrolo[2,1-f][1,2,4]triazin-5-yl)piperidin-3-yl)-6-((1-isopropylpiperidin-4-yl)oxy)picolinamide]
0.007 | CC(=O)N1CC=C(c2cc(N3CCC[C@@H](NC(=O)c4ccc(C#N)s4)C3)c3c(N)ncnn23)C1 [Example 714, (R)-N-(1-(7-(1-acetyl-2,5-dihydro-1H-pyrrol-3-yl)-4-aminopyrrolo[2,1-f][1,2,4]triazin-5-yl)piperidin-3-yl)-5-cyanothiophone-2-carboxamide]
0.043 | CC(=O)N1CC=C(c2cc(N3CCC[C@@H](NC(=O)c4sc(C5CC5)cc4OC4CCN(C5CC5)CC4)C3)c3c(N)ncnn23)C1 [Example 378, (R)-N-(1-(7-(1-acetyl-2,5-dihydro-1H-pyrrol-3-yl)-4-aminopyrrolo[2,1-f][1,2,4]triazin-5-yl)piperidin-3-yl)-5-cyclopropyl-3-((1-cyclopropylpiperidin-4-yl)oxy)thiophene-2-carboxamide]
0.003 | CC(=O)NCC(=O)N1CC=C(c2cc(N3CCC[C@@H](NC(=O)c4ccc(Cl)s4)C3)c3c(N)ncnn23)C1 [Example 914, (R)—N-(1-(7-(1-(acetylglycyl)-2,5-dihydro-1H-pyrrol-3-yl)-4-aminopyrrolo[2,1-f][1,2,4]triazin-5-yl)piperidin-3-yl)-5-chlorothiophene-2-carboxamide]
0.002 | Cc1ccc(C(=O)N[C@@H]2CCCN(c3cc(-c4ccc(S(C)(=O)=O)cc4)n4ncnc(N)c34)C2)s1 [Example 87, (R)-N-(1-(4-amino-7-(4-(methylsulfonyl)phenyl)pyrrolo[2,1-f][1,2,4]triazin-5-yl)piperidin-3-yl)-5-methylthiophene-2-carboxamide]
0.002 | COC(=O)N1CC=C(c2cc(N3CCC[C@@H](NC(=O)c4sc(Cl)cc4OC4CCN(C)CC4)C3)c3c(N)ncnn23)C1 [Example 562, methyl (R)-3-(4-amino-5-(3-(5-chloro-3-((1-methylpiperidin-4-yl)oxy)thiophene-2-carboxamido)piperidin-1-yl)pyrrolo[2,1-f][1,2,4]triazin-7-yl)-2,5-dihydro-1H-pyrrole-1-carboxylate]
0.01 | Nc1ncnn2c(C3=CCN(C(=O)[C@@H]4CCNC4)C3)cc(N3CCC[C@@H](NC(=O)c4ccc(Cl)s4)C3)c12 [Example 896, N-((R)-1-(4-amino-7-(1-((R)-pyrrolidine-3-carbonyl)-2,5-dihydro-1H-pyrrol-3-yl)pyrrolo[2,1-f][1,2,4]triazin-5-yl)piperidin-3-y1)-5-chlorothiophene-2-carboxamide, TFA]
0.002 | Cc1ccc(C(=O)N[C@@H]2CCCN(c3cc(C4=CCN(S(C)(=O)=O)C4)n4ncnc(N)c34)C2)s1 [Example 124, (R)—N-(1-(4-amino-7-(1-(methylsulfonyl)-2,5-dihydro-1H-pyrrol-3-yl)pyrrolo[2,1-f][1,2,4]triazin-5-yl)piperidin-3-yl)-5-methylthiophene-2-carboxamide]
0.03 | CC(=O)NCCOc1cc(C(F)F)sc1C(=O)N[C@@H]1CCCN(c2cc(-c3cnc(C#N)c(C)c3)n3ncnc(N)c23)C1 [Example 426, (R)-3-(2-acetamidoethoxy)-N-(1-(4-amino-7-(6-cyano-5-methylpyridin-3-yl)pyrrolo[2,1-f][1,2,4]triazin-5-yl)piperidin-3-yl)-5-(difluoromethyl)thiophene-2-carboxamide]
0.004 | COC(=O)N1CC=C(c2cc(N3CCC[C@@H](NC(=O)c4sc(C(F)F)cc4OCCN)C3)c3c(N)ncnn23)C1 [Example 324, methyl (R)-3-(4-amino-5-(3-(3-(2-aminoethoxy)-5-(difluoromethyl)thiophene-2-carboxamido)piperidin-1-yl)pyrrolo[2,1-f][1,2,4]triazin-7-yl)-2,5-dihydro-1H-pyrrole-1-carboxylate]
2.99 | CCOC(=O)[C@H]1CCCN(c2cc(-c3ccc(S(C)(=O)=O)cc3)n3ncnc(N)c23)C1 [Example 1, ethyl (S)-1-(4-amino-7-(4-(methylsulfonyl)phenyl)pyrrolo[2,1-f][1,2,4]triazin-5-yl)piperidine-3-carboxylate]
0.104 | N#Cc1ccc(-c2cc(N3CCC[C@@H](NC(=O)c4n[nH]c5ccccc45)C3)c3c(N)ncnn23)cn1 [Example 648, (R)-N-(1-(4-amino-7-(6-cyanopyridin-3-yl)pyrrolo[2,1-f][1,2,4]triazin-5-yl)piperidin-3-y1)-1H-indazole-3-carboxamide]
0.001 | CN(C)CCOc1cc(Cl)sc1C(=O)N[C@@H]1CCCN(c2cc(-c3ccc(C#N)nc3)n3ncnc(N)c23)C1 [Example 278, (R)-N-(1-(4-amino-7-(6-cyanopyridin-3-yl)pyrrolo[2,1-f][1,2,4]triazin-5-yl)piperidin-3-yl)-5-chloro-3-(2-(dimethylamino)ethoxy) thiophene-2-carboxamide]
1.05 | (R)-N-(1-(4-amino-7-12-(2-hydroxypropan-2-yl)pyrimidin-5-yl)pyrrolo[2,1-f][1,2,4]triazin-5-yl)piperidin-3-yl)-5-(difluoromethyl)thiophene-2-carboxamide [Example 519]
0.276 | N#Cc1ccc2[nH]nc(C(=O)N[C@@H]3CCCN(c4cc(-c5cncnc5)n5ncnc(N)c45)C3)c2c1 [Example 685, (R)—N-(1-(4-amino-7-(pyrimidin-5-yl)pyrrolo[2,1-f][1,2,4]triazin-5-yl)piperidin-3-yl)-5-cyano-1H-indazole-3-carboxamide]
0.053 | CC(=O)N1CC=C(c2cc(N3CCC[C@@H](NC(=O)c4csc(-c5cccnc5)n4)C3)c3c(N)ncnn23)C1 [Example 450, (R)-N-(1-(7-(1-acetyl-2,5-dihydro-1H-pyrrol-3-yl)-4-aminopyrrolo[2,1-f][1,2,4]triazin-5-yl)piperidin-3-yl)-2-(pyridin-3-yl)thiazole-4-carboxamide]
0.004 | CN(C)CCOc1cc(Cl)sc1C(=O)N[C@@H]1CCCN(c2cc(C3=CCN(C(=O)CC(F)(F)F)C3)n3ncnc(N)c23)C1 [Example 176, (R)-N-(1-(4-amino-7-(1-(3,3,3-trifluoropropanoyl)-2,5-dihydro-1H-pyrrol-3-yl)pyrrolo[2,1-f][1,2,4]triazin-5-yl)piperidin-3-yl)-5-chloro-3-(2-(dimethylamino)ethoxy) thiophene-2-carboxamide, 2 TFA]

Compound | IC50 [µM]
CC(C)n1cc(-c2cc(N3CCC[C@@H](NC(=O)c4cccc(N5CCN(C)CC5)n4)C3)c3c(N)ncnn23)ccc1=O [Example 792, (R)-N-(1-(4-amino-7-(1-isopropyl-6-oxo-1,6-dihydropyridin-3-yl)pyrrolo[2,1-f][1,2,4]triazin-5-yl)piperidin-3-yl)-6-(4-methylpiperazin-1-yl)picolinamide] | 0.029
CC(C)n1nccc1-c1cc(N2CCC[C@@H](NC(=O)c3cccc(N4CCN(C)CC4)n3)C2)c2c(N)ncnn12 [Example 796, (R)-N-(1-(4-amino-7-(1-isopropyl-1H-pyrazol-5-yl)pyrrolo[2,1-f][1,2,4]triazin-5-yl)piperidin-3-yl)-6-(4-methylpiperazin-1-yl)picolinamide] | 0.785
CC(=O)N1CC=C(c2cc(N3CCC[C@@H](NC(=O)Oc4ccccc4)C3)c3c(N)ncnn23)C1 [Example 873, phenyl (R)-(1-(7-(1-acetyl-2,5-dihydro-1H-pyrrol-3-yl)-4-aminopyrrolo[2,1-f][1,2,4]triazin-5-yl)piperidin-3-yl)carbamate] | 0.936
